The values below come from patent publication EP0414533A1, “Use of iodopropargyl esters of alpha-amino acid derivatives as antimicrobial agents” (ROHM AND HAAS COMPANY, priority 1989, dated 1991).

One experiment has as its system Aspergillus niger (ANIG). Nature of the experiment: Minimum inhibitory concentration (MIC), broth two-fold serial dilution test. Particulars: Aspergillus niger. It counts as cell-based.
For experiment [1], the system named is Aureobasidium pullulans (APUL). Described as above. As to conditions: Aureobasidium pullulans. It counts as cell-based.
The next experiment has as its system Botrytis cinerea (BOC). Nature of the experiment: In-vitro plant fungicide test. It counts as cell-based. Particulars: Botrytis cinerea, 25 ppm; Table IVa; *=Phytotoxic; read-out: % Control at 25 ppm BOC.
Another experiment deals with Fusarium roseum (FUS). Nature of the experiment: In-vitro plant fungicide test. Format: cell-based. As to conditions: Fusarium sambucinum, read-out: % Control at 25 ppm FUS, 25 ppm; Table IVa; *=Phytotoxic.
Experiment [2] concerns Cochliobolus sativus (HEL). Kind of experiment: In-vitro plant fungicide test. It counts as cell-based. Particulars: Bipolaris sorokiniana, 25 ppm; Table IVa; *=Phytotoxic; read-out: % Control at 25 ppm HEL.
Experiment [3] relates to Phytophthora capsici (PHY). Kind of experiment: In-vitro plant fungicide test. It counts as cell-based. As to conditions: Phytophthora capsici; 25 ppm; Table IVa; read-out: % Control at 25 ppm PHY.
The subject of a further experiment is Piricularia oryzae (PIR). Nature of the experiment: microbe, parasite or virus in culture. Format: cell-based. Particulars: read-out: % Control at 25 ppm PIR.
Another experiment concerns Pythium ultimum (PYU). Kind of experiment: In-vitro plant fungicide test. It counts as cell-based. As to conditions: Globisporangium ultimum; 25 ppm; Table IVa; read-out: % Control at 25 ppm PYU.
The next experiment has as its system Rhizoctonia solani (RHI). Kind of experiment: In-vitro plant fungicide test. Particulars: Rhizoctonia solani; 25 ppm; Table IVa; read-out: % Control at 25 ppm RHI. It counts as cell-based.
For the next experiment, the system named is Septoria nodorum (SEP). Nature of the experiment: In-vitro plant fungicide test. As to conditions: Parastagonospora nodorum, 25 ppm; Table IVa; read-out: % Control at 25 ppm SEP. It counts as cell-based.
Experiment [4] relates to Xanthomonas campestris (XAN). Nature of the experiment: In-vitro plant fungicide test. Particulars: Xanthomonas campestris; 25 ppm; Table IVa; read-out: % Control at 25 ppm XAN. It counts as cell-based.
The next experiment has as its system THREE FUNGI. Nature of the experiment: MIC test against three fungi in Mycophile Broth, pH 5.0, read after 8 days (Table VII). It counts as cell-based. Particulars: 192 h.
The test system of experiment [5] is Pseudomonas fluorescens (PSFL). Kind of experiment: Minimum inhibitory concentration (MIC), broth two-fold serial dilution test. As to conditions: Pseudomonas fluorescens.
Experiment [6] deals with Pseudomonas aerugenosa (PSAE). The description is as above. Particulars: Pseudomonas.
A further experiment deals with Escherichia coli (ECOL). The experiment is described as above. As to conditions: Escherichia coli.
Experiment [7] deals with Staphylococcus aureus (SAUR). Described as above. As to conditions: Staphylococcus aureus.
In experiment [8] the test system is MIXED COOLING TOWER ALGAE. Kind of experiment: MIC test against mixed cooling tower algae. Particulars: Table VIII. It counts as cell-based, green algae and blue-green bacteria. Here is the method: The algae culture contains green algae and blue-green bacteria, and is obtained from a cooling tower in Spring House, Pennsylvania. The algae culture is grown in Allen's medium on a rotary shaker under flourescent room lighting. This culture is further diluted with Allen's medium and then added to the test vessel.

The next experiment has as its system 8 FUNGI. Kind of experiment: Microbicides secondary test against 8 fungi on Mycophile Agar at pH 5.0 (Table VI). It counts as cell-based. Details: key: 1= no growth; 0= growth of the indicated fungi at dose indicated in ppm. Particulars: for ANIG growth: Aspergillus niger; for APUL growth: Aureobasidium pullulans; for CGLO growth: Chaetomium globosum; for CRES growth: Cladosporium resinae; for GTRA growth: Gloeophyllum trabeum; for PFUN growth: Penicillium funiculosum; for RRUB growth: Rhodotorula rubra; for SSER growth: Sacharomyces cerevisiae. The text has this:
The results of the minimum inhibitory concentration (MIC) tests of compounds of this invention are shown in Tables IIIa IIIb, IIIc, V, VI, VII, and VIII against the microorganisms shown in Table IX.

The mark [9] stands for this setting: read-out: MIC (F) ANIG, M9G (minimal salts media with glucose), Table IIIc, iodopropargyl esters of peptides.
[10] abbreviates: read-out: MIC (F) APUL, M9G (minimal salts media with glucose), Table IIIc, iodopropargyl esters of peptides.
Setting [11] is: Aspergillus niger, pH 5, read-out: MIC ANIG, Aspergillus niger, serial dilutions from 50 ppm, read after 8 days of incubation.
Setting [12] is: Aureobasidium pullulans, pH 5, read-out: MIC APUL, Aureobasidium pullulans, serial dilutions from 50 ppm, read after 8 days of incubation.
Setting [13] is: Gloeophyllum trabeum, pH 5, read-out: MIC GTRA, Gloeophyllum trabeum, serial dilutions from 50 ppm, read after 8 days of incubation.
Where [14] appears, read: read-out: MIC (G-) PSFL, M9G (minimal salts media with glucose), Table IIIc, iodopropargyl esters of peptides.
[15] abbreviates: read-out: MIC (G-) PSAE, M9G (minimal salts media with glucose), Table IIIc, iodopropargyl esters of peptides.
The mark [16] stands for this setting: read-out: MIC (G-) ECOL, M9G (minimal salts media with glucose), Table IIIc, iodopropargyl esters of peptides.
The mark [17] stands for this setting: read-out: MIC (G+) SAUR, M9G (minimal salts media with glucose), Table IIIc, iodopropargyl esters of peptides.

Converted amounts (≈) assume the structure as drawn. Where a name gives a salt, the structure may show the parent alone. Read-outs that look alike come from different tables or passages of the source.

Excerpt for Escherichia coli (ECOL): When the test is ready to be done, each vessel in the dilution series, except the first vessel, contains an equal volume of compound free broth. The first vessel contains twice the volume of broth with the starting concentration of test compound. One half of the broth from the first vessel is transferred to the second vessel. After being mixed, one half the resulting volume is removed from the second vessel and transferred to the third vessel. The entire cycle is repeated sufficiently to give a series of concentrations amounting to 500, 250, 125, 63, 31, 16, 8, and 4 ppm (or 100, 50, 25, 12.5, 6.2, 3.1, 1.6, and 0.8), respectively.
Each vessel is then inoculated with a cell suspension of the appropriate test organism. Bacteria are grown in broth, fungi on agar slants for a time and at a temperature appropriate to the species being tested, and algae are a mixture of green algae and blue-green bacteria grown in a nutrient media. At the end of the growth period, in the case of bacteria, the broth is vortexed to disperse the cells.
The vessels are then incubated at the appropriate temperature. After the incubation, the vessels are examined for growth/no growth.

One may read the MIC as the lowest concentration found to suppress growth. `C[C@H](N)C(=O)N[C@@H](C)C(=O)OCC#CI` [Compound 18, L-alanyl-L-alanine iodopropargyl ester trifluoroacetate]: the MIC was below 0.8 µg/mL in the experiment with Aspergillus niger (ANIG) (setting [9]); below 0.8 µg/mL in experiment [1] (setting [10]); 12.5 µg/mL in the experiment on THREE FUNGI (setting [11]); 50 µg/mL with THREE FUNGI (setting [12]); 12.5 µg/mL in the experiment with THREE FUNGI (setting [13]); 100 µg/mL in experiment [5] (setting [14]). The minimal inhibitory concentration (MIC) in experiment [6] (setting [15]) was 100 µg/mL; in the experiment on Escherichia coli (ECOL) (setting [16]), 100 µg/mL; in experiment [7] (setting [17]), above 100 µg/mL. Also, the inhibition of growth at 25 ppm in the experiment on Botrytis cinerea (BOC) was found to be 50%; with Fusarium roseum (FUS), 100%; in [2], 100%; in experiment [3] it was 100%; in the experiment with Piricularia oryzae (PIR) it was 100%; in the experiment with Pythium ultimum (PYU) it was 100%. Besides, the figures for the inhibition of growth at 25 ppm (with Rhizoctonia solani (RHI); in the experiment on Septoria nodorum (SEP); in [4]) were 100%, 100% and 0%, respectively.
For the molecule `C[C@H](N)C(=O)N[C@@H](CSCc1ccccc1)C(=O)OCC#CI` [Compound 20, L-alanyl-S-benzyl-L-cysteine iodopropargyl ester trifluoroacetate], the MIC was below 0.8 µg/mL with Aspergillus niger (ANIG) (setting [9]); below 0.8 µg/mL in experiment [1] (setting [10]); 50 µg/mL with THREE FUNGI (setting [11]); 50 µg/mL with THREE FUNGI (setting [12]); 12.5 µg/mL in the experiment on THREE FUNGI (setting [13]); 100 µg/mL in experiment [5] (setting [14]). Also, the MIC (in experiment [6] (setting [15]); in the experiment with Escherichia coli (ECOL) (setting [16]); in [7] (setting [17])) was 100 µg/mL each time. In addition, the inhibition of growth at 25 ppm in the experiment on Botrytis cinerea (BOC) turned out to be 0%; in the experiment on Fusarium roseum (FUS) it was 100%; in experiment [2], 100%; in experiment [3], 100%; in the experiment with Piricularia oryzae (PIR) it was 100%; in the experiment on Pythium ultimum (PYU) it was 100%. Also, the inhibition of growth at 25 ppm in the experiment with Rhizoctonia solani (RHI) is 100%; with Septoria nodorum (SEP) it was 100%; in experiment [4], 0%.
In the case of `C[C@H](N)C(=O)N[C@H](C(=O)OCC#CI)[C@@H](C)OCc1ccccc1` [Compound 21, L-alanyl-O-benzyl-L-threonine iodopropargyl ester trifluoroacetate], the minimum inhibitory concentration (MIC) in the experiment on Aspergillus niger (ANIG) (setting [9]) was below 0.8 µg/mL; in experiment [1] (setting [10]), 1.6 µg/mL; in the experiment on THREE FUNGI (setting [11]), 50 µg/mL; in the experiment with THREE FUNGI (setting [12]), above 50 µg/mL; with THREE FUNGI (setting [13]), 50 µg/mL; in [5] (setting [14]), 100 µg/mL. Further, the minimal inhibitory concentration (MIC) in experiment [6] (setting [15]) was 100 µg/mL; in the experiment with Escherichia coli (ECOL) (setting [16]), 100 µg/mL; in experiment [7] (setting [17]), above 100 µg/mL. Moreover, the inhibition of growth at 25 ppm in the experiment on Botrytis cinerea (BOC) is 0%; in the experiment with Fusarium roseum (FUS), 0%; in experiment [2], 0%; in [3], 100%; with Piricularia oryzae (PIR), 100%; with Pythium ultimum (PYU) it was 100%. Also, the inhibition of growth at 25 ppm with Rhizoctonia solani (RHI) was 100%; with Septoria nodorum (SEP), 100%; in experiment [4], 0%.
In the case of `O=C(CNC(=O)OCc1ccccc1)OCC#CI` [Compound 31, N-benzyloxycarbonylglycine iodopropargyl ester], the minimum inhibitory concentration (MIC) worked out at 2 µg/mL (≈ 5.36 µM) with Aspergillus niger (ANIG) (IIIB, trypticase soy broth (complex media), Table IIIb, read-out: MIC (F) ANIG); 4 µg/mL (≈ 10.7 µM) in experiment [1] (IIIB, trypticase soy broth (complex media), Table IIIb, read-out: MIC (F) APUL); 6.2 µg/mL (≈ 16.6 µM) in [8]; 1.6 µg/mL (≈ 4.29 µM) with THREE FUNGI (Aspergillus niger, serial dilutions from 50 ppm, read after 8 days of incubation, read-out: MIC ANIG); 6.2 µg/mL (≈ 16.6 µM) in the experiment on THREE FUNGI (Aureobasidium pullulans, serial dilutions from 50 ppm, read after 8 days of incubation, read-out: MIC APUL); 0.8 µg/mL (≈ 2.14 µM) with THREE FUNGI (Gloeophyllum trabeum, serial dilutions from 50 ppm, read after 8 days of incubation, read-out: MIC GTRA). The minimal inhibitory concentration (MIC) in experiment [5] (IIIB, read-out: MIC (G-) PSFL, trypticase soy broth (complex media), Table IIIb) came out at 32 µg/mL (≈ 85.8 µM); in experiment [6] (IIIB, read-out: MIC (G-) PSAE, trypticase soy broth (complex media), Table IIIb) it was 63 µg/mL (≈ 169 µM); with Escherichia coli (ECOL) (IIIB, read-out: MIC (G-) ECOL, trypticase soy broth (complex media), Table IIIb), 250 µg/mL (≈ 670 µM); in [7] (IIIB, read-out: MIC (G+) SAUR, trypticase soy broth (complex media), Table IIIb) it was 32 µg/mL (≈ 85.8 µM). The ANIG growth amounted to 0 in the experiment with 8 FUNGI (0.2 PPM), 0 in the experiment with 8 FUNGI (1.0 PPM), 1 with 8 FUNGI (2.5 PPM) and 1 in the experiment on 8 FUNGI (25 PPM). Moreover, the APUL growth with 8 FUNGI (0.2 PPM) is on record as 0; in the experiment on 8 FUNGI (1.0 PPM), 0; in the experiment on 8 FUNGI (2.5 PPM) it was 0; with 8 FUNGI (25 PPM), 1. For the same molecule, the CGLO growth stood at 0 in the experiment on 8 FUNGI (0.2 PPM), 0 in the experiment on 8 FUNGI (1.0 PPM), 1 with 8 FUNGI (2.5 PPM) and 1 in the experiment on 8 FUNGI (25 PPM). For the same molecule, the CRES growth was determined as 0 in the experiment with 8 FUNGI (0.2 PPM), 0 in the experiment on 8 FUNGI (1.0 PPM), 0 with 8 FUNGI (2.5 PPM) and 1 with 8 FUNGI (25 PPM). Also, the GTRA growth with 8 FUNGI (0.2 PPM) is reported as 0; with 8 FUNGI (1.0 PPM) it was 0; with 8 FUNGI (2.5 PPM) it was 1; with 8 FUNGI (25 PPM), 1. For the same molecule, the PFUN growth in the experiment with 8 FUNGI (0.2 PPM) turned out to be 0; with 8 FUNGI (1.0 PPM), 0; in the experiment on 8 FUNGI (2.5 PPM), 1; in the experiment on 8 FUNGI (25 PPM) it was 1. The RRUB growth in the experiment on 8 FUNGI (0.2 PPM) amounted to 0; in the experiment with 8 FUNGI (1.0 PPM) it was 0; in the experiment on 8 FUNGI (2.5 PPM), 0; in the experiment with 8 FUNGI (25 PPM), 1. Besides, the SSER growth is recorded as 0 with 8 FUNGI (0.2 PPM), 0 in the experiment on 8 FUNGI (1.0 PPM), 0 in the experiment on 8 FUNGI (2.5 PPM) and 1 in the experiment with 8 FUNGI (25 PPM).
